From US10959984B2, “Methods for treating cancer with RORγ inhibitors” (THE REGENTS OF THE UNIVERSITY OF CALIFORNIA, priority 2015, dated 2021)

Legend:
[1] = tested on: OVCAR420, T24, ECC1, HepG2, Hep3B, T98G, SUDHL4, SUDHL6, HCT116 and docetaxel-resistant C4-2B cells; assay: CellTiter-GLO viability, cells of other cancer types; format: cell-based, human; details: ovarian OVCAR420, bladder T24, endometrial ECC1, liver HepG2 and Hep3B, glioblastoma T98G, DLBCL SUDHL4 and SUDHL6, colon HCT116, docetaxel-resistant C4-2B; 4 days
Description: (§1) For cell viability, cells were seeded in 96-well plates at 1500-2500 cells per well (optimum density for growth) in a total volume of 100 μl media. Serially diluted compounds in […] of media were added to the cells 12 hours later. After 4 days of incubation, Cell-Titer GLO reagents (Promega) were added and luminescence was measured on GLOMAX microplate luminometer (Promega), according to the manufacturer's instructions. All experimental points were set up as sextuplicate as biological replication and the entire experiments were repeated three times. The data are presented as percentage of viable cells with vehicle treated cells set as 100. The estimated in vitro IC50 values were calculated using GraphPad Prism 6 software.
(§2) Using a CellTiter-GLO assay, the viability of cells of different cancer types was measured after treatment with different concentrations of RORγ small molecule inhibitors for 4 days.

lung cancer cells = assay: CellTiter-GLO viability, lung cancer cells; format: cell-based, human; details: NSCLC cells: KRAS mutant (A427, Calu1, A549, H23, H358), BRAF mutant (H1666), EGFR mutant (HCC827, PC-9), Erlotinib-resistant (A427, H1975); 4 days
Description: as §1, §2

VCaP xenograft tumors = assay: Spontaneous metastasis of VCaP xenografts (Alu-qPCR); format: in vivo, mice; details: treated 23 d
Description: FIGS. 28A-28C show the in vivo effects of RORγ inhibition on tumor metastasis, mouse body weight and organ weight in xenograft models. FIG. 28A: Mice bearing VCaP xenografts as in FIG. 11D, treated with vehicle, SR2211, ENZ or combination for 23 d, were assessed for spontaneous metastasis to the femur (bone marrow) and liver. Genomic DNA isolated from these sites was analyzed for metastasized cells by measuring human Alu sequence (by Alu-qPCR). FIG. 28B: Body weight of mice from different treatment groups. FIG. 28C: Weight of indicated tissues from mice treated with vehicle or SR2211 for 24 days as in FIG. 11A of C4-2B xenograft model. Significance was calculated using Student's t-test, *p=0.01, n=6.

[2] = tested on: HER2-positive cells, such as SKBR3 and HCC1954; assay: CellTiter-GLO viability, HER2-positive breast cancer cells; format: cell-based, human; details: SKBR3 and HCC1954, 4 days
Description: as §1, §2

[3] = tested on: C4-2B, VCaP and 22Rv1 xenograft tumors; assay: Xenograft tumor growth, three AR-positive tumor models; format: in vivo, mice; details: 5 mg/kg, i.p., five times per week; including ENZ-resistant 22Rv1
Description: Four-week-old male SCID C.B17 mice (for C4-2B and VCaP) or BALB/c nu/nu athymic mice (for 22Rv11 and PC-3) were purchased from Harlan Inc. For establishing tumors, 2×10^6 cells were suspended in total of 100 μL PBS/Matrigel (1:1) and implanted subcutaneously into the dorsal flank on both sides of the mice. Animal group size of six or more was estimated to have a high statistic power, based on power calculation (http://www.biomath.info/power/) and previous studies involving the same xenograft models^34,68. When the tumor volume was approximately 80 mm^3, the mice were randomized and then treated intraperitoneally (i.p.) with 100 μl of either vehicle or RORγ antagonists SR2211, XY011/8k (in a formulation of 15% Cremophor EL, Calbiochem, 82.5% PBS, and 2.5% DMSO) for five times per week. Tumor growth was monitored by calipers with volume calculated using the equation: (π/6 (length×width2)). Body weight during the course of the study was also monitored. At the end of the studies mice were killed and tumors were dissected and weighed. Additionally, prostate, seminal vesicle, testis, kidney, heart, lung, liver, epididymal fat pad and spleen were harvested and weighed. To assess the effect of combining RORγ antagonists and ENZ on the growth of castrated-resistant VCaP xenografts (CRPC-VCaP), first, SCID C.B17 mice were injected with VCaP cells as above to establish the tumors. […]

Question: For `OC(c1ccc(-c2ccc(CN3CCN(Cc4ccncc4)CC3)cc2)c(F)c1)(C(F)(F)F)C(F)(F)F` [SR2211, 2-Fluoro-4′-[[4-(4-pyridinylmethyl)-1-piperazinyl]methyl]-a,a-bis (trifluoromethyl)-[1,1′-biphenyl]-4-methanol], which “growth and survival of cancer cells of other types” value [1] is on record?
Answer: Its value is “significant inhibition of the growth and survival”.

Question: And the “growth and survival of lung cancer cells” value (lung cancer cells)?
Answer: The value was “strongly inhibited the growth and survival of lung cancer cells”.

Question: And the “metastasis to femur bone and liver” value (VCaP xenograft tumors)?
Answer: The value was “strongly inhibited the metastasis to femur bone and liver”.

Question: And the “inhibition of HER2-positive cells” value [2]?
Answer: The value was “relatively strong inhibition”.

Question: And the tumor growth [3]?
Answer: The tumor growth was “effectively stopped the tumor growth”.
